pKi: −log10 of the molar value. Counter-ions that a name gives are not always drawn.
The compounds below were run against T1, 5-HT1A receptor (Rattus norvegicus, UniProt P19327) (assay: binding assay using [3H]8-OH-DPAT, rat brain membrane preparation).
T1 construct: a rat brain was homogenized in Tris buffer and centrifuged; from tissue; host or cells: rat brain membrane preparation
T1 sequence (P19327 1-422): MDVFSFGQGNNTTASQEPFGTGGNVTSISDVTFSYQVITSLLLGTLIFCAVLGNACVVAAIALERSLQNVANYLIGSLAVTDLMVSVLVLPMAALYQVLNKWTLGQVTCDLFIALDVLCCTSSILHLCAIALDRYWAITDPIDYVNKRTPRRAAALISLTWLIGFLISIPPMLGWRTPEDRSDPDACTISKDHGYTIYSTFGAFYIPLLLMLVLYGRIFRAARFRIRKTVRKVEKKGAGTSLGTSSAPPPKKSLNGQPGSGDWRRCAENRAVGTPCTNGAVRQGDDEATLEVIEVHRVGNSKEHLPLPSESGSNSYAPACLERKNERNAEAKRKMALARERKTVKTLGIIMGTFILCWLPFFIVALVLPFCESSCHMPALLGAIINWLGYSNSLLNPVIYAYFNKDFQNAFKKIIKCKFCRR
Description: To say more exactly, a rat brain was homogenized in Tris buffer and centrifuged. The resultant sediment was rehomogenized using Tris buffer and incubated at 37° C. for 10 minutes, followed by centrifugation. The resulting deposit was homogenized in Tris buffer containing pargyline, calcium chloride and ascorbic acid and subjected to binding assay (membrane preparation).
The assay was carried out by combining the membrane preparation with [3H]8-OH-DPAT and the test compound and then incubating at 37° C. for 10 minutes.
Subsequently, the mixture was immediately filtered through a Whatman GF/B filter and the radio-activity remaining on the filter was measured by liquid chromatography.
The binding capacity of the test compound to 5-HT1A receptor was expressed as Ki value calculated by the formula: [formula] wherein [L] denotes the concentration of [3H]8-OH-DPAT, kd represents the dissociation constant, and IC50 represents the concentration of the test compound required to produce a 50% inhibition of [3H]8-OH-DPAT binding.
`c1ccc(N2CCN(CCCNc3ccc4c(c3)OCO4)CC2)cc1` [No. 11] gave a pKi of 7.74.
`Fc1ccc(N2CCN(CCCCOc3ccc4c(c3)OCO4)CC2)cc1` [No. 5] gave a pKi of 7.48.
`COc1ccc(OCCCN2CCN(c3ccccc3OC)CC2)cc1OC` [No. 8] gave a pKi of 7.84.
In the case of `FC(F)(F)c1cccc(N2CCN(CCCCOc3ccc4c(c3)OCO4)CC2)c1` [No. 6], the pKi was 7.25.
Compound `[O-][S+](CCCN1CCN(c2ccccc2)CC1)c1ccc2c(c1)OCCCO2` (stereo not shown) [No. 22] has a pKi of 7.60.
`Cc1ccccc1N1CCN(CCCOc2ccc3c(c2)OCO3)CC1` [No. 14] gave a pKi of 7.00.
`O=C(CCN1CCN(c2ccccc2)CC1)Nc1ccc2c(c1)OCO2` [No. 10] was tested, and the pKi was 7.60.
With `FC(F)(F)c1cccc(N2CCN(CCCOc3ccc4c(c3)OCO4)CC2)c1` [No. 13] the pKi was 8.10.
`O=C(CCCCN1CCN(c2ccccc2)CC1)c1ccc2c(c1)OCO2` [No. 20] gave a pKi of 8.00.
`c1cnc(N2CCN(CCCOc3ccc4c(c3)OCO4)CC2)nc1` [No. 3] was tested, and the pKi was 8.00.
`c1ccc(N2CCN(CCCCOc3ccc4c(c3)OCCO4)CC2)cc1` [No. 19] was tested, and the pKi was 7.80.
In the case of `c1ccc(N2CCN(CCCCOc3ccc4c(c3)OCO4)CC2)cc1` [No. 4], the pKi was 8.00.
`c1ccc(N2CCN(CCCOc3ccc4c(c3)OCO4)CC2)nc1` [No. 2] gave a pKi of 8.62.
For `COc1cc(OCCCN2CCN(c3ccccc3)CC2)cc(OC)c1OC` [No. 7], the pKi was 8.24.
Work on `c1ccc(N2CCN(CCCOc3ccc4c(c3)OCO4)CC2)cc1` [No. 1] yielded a pKi of 8.33.
For `c1ccc(N2CCN(CCOc3ccc4c(c3)OCO4)CC2)cc1` [No. 16], the pKi was 6.90.
For `OC(CCCN1CCN(c2ccccc2)CC1)c1ccc2c(c1)OCO2` (stereo not shown) [No. 18], the pKi was 8.10.
Compound `c1ccc(N2CCN(CCCSc3ccc4c(c3)OCCO4)CC2)cc1` [No. 21] has a pKi of 7.15.
In the case of `O=C1c2ccccc2S(=O)(=O)N1CCCCN1CCN(c2ncccn2)CC1` [Ipsapirone, 2-(4-(4-(2-pyrimidinyl)-1-piperazinyl)butyl)-1,2-benzisothiazol-3-(2H)one-1,1-dioxydehydrochloride, reference compound], the pKi was 8.66.
For `Fc1ccc(N2CCN(CCCOc3ccc4c(c3)OCO4)CC2)cc1` [No. 12], the pKi was 7.80.
In the case of `O=C(CCCN1CCN(c2ccccc2)CC1)c1ccc2c(c1)OCO2` [No. 17], the pKi was 8.24.
`c1ccc(N2CCN(CCCOc3ccc4c(c3)OCCO4)CC2)cc1` [No. 15] gave a pKi of 8.24.
